From PubChem BioAssay (NCI) come the findings set out here.

What all share (assay): NCI anticancer screen, dose series, 48 h
Assay [1] has as its system NCI-H226 lung.
Assay [2] has as its system M14 melanoma.
Assay [3] has as its system RPMI-8226 leukemia.
Assay [4] has as its system SK-MEL-28 melanoma.
The subject of assay [5] is DU-145 prostate.
Assay [6] deals with MDA-MB-231 breast.
Assay [7] deals with NCI-H23 lung.
Assay [8] deals with HCT-15 colon.
In assay [9] the test system is RXF 393 renal.
Assay [10] has as its system UACC-62 melanoma.

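The compound was tested at five concentrations on cells cultured in 96-well plates, with a 48-hour exposure period. GI50 = concentration required for 50% inhibition of growth. TGI is the concentration that stops growth completely.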

In the case of `COCn1c2ccc(OC(C)=O)cc2c2c(=O)oc(N(C)C)nc21`, the TGI in assay [1], in assay [2], in [3], in [4], in [5] and in assay [6] was above 100 µM in each case. Further, the TGI in assay [7], in [8], in assay [9] and in [10] was above 100 µM throughout.
In the case of `CC1=NN(c2ccccc2)C(=O)/C1=C/c1ccc(O)cc1`, the TGI in [1], in assay [2], in assay [3], in assay [4], in assay [5] and in [6] was above 100 µM each time. Also, the TGI in [7], in assay [8], in [9] and in [10] was above 100 µM in each case.
As for `O=NC1C(Cl)C2CC1C1C(Br)C(Br)CC21` (centres undefined), the TGI in assay [1] was above 100 µM; in assay [2], above 100 µM; in assay [3] it was 68.6 µM; in [4], above 100 µM; in assay [5] it was above 100 µM; in [6] it was above 100 µM. The TGI in assay [7], in assay [8], in assay [9] and in assay [10] was above 100 µM in each case.
Take `C#CCOCC12C=CC(O1)C1C(=O)N(C)C(=O)C12` (centres undefined): the TGI in assay [1], in [2], in assay [3], in assay [4], in assay [5] and in assay [6] was above 100 µM throughout. Besides, the TGI in assay [7], in assay [8], in [9] and in [10] was above 100 µM in each case.
For the molecule `O=C(O[C@H]1[C@@H](O)[C@H](n2cnc3c(Cl)ncnc32)O[C@@H]1COC(c1ccccc1)(c1ccccc1)c1ccccc1)c1ccccc1`, the TGI in assay [1] was above 100 µM; in assay [2], above 100 µM; in [3], 5.39 µM; in assay [4], above 100 µM; in [5], 3.85 µM; in assay [6] it was 51.1 µM. Besides, the TGI was above 100 µM in [7], above 100 µM in assay [8], 48.1 µM in assay [9] and above 100 µM in assay [10].
Take `CC1(CCC2C=CCC2)CCCNC1=S` (centres undefined): the TGI in assay [1], in [2], in assay [3], in [4], in assay [5] and in assay [6] was above 10 µM each time. For the same molecule, the TGI in [7], in assay [8], in assay [9] and in assay [10] was above 10 µM in each case.
In the case of `O=c1oc2ccccc2c(Nc2ccc3c(c2)S(=O)(=O)c2ccccc2O3)c1[N+](=O)[O-]`, the TGI in assay [1] is 74.9 µM; in assay [2] it was above 100 µM; in assay [3] it was 59.8 µM; in assay [4] it was 51.9 µM; in [5], above 100 µM; in assay [6] it was 67.9 µM. Further, the TGI is 62.6 µM in assay [7], above 100 µM in [8], 51.2 µM in assay [9] and 40 µM in assay [10].
Regarding `C[C@@H]1CC[C@H]2C(COCCOCC3=C(C(F)(F)F)O[C@@H]4O[C@@]5(C)CC[C@H]6[C@H](C)CC[C@@H]3[C@@]46OO5)=C(C(F)(F)F)O[C@@H]3O[C@@]4(C)CC[C@@H]1[C@]32OO4`, the GI50 in assay [1] was 0.102 µM; in assay [2], 0.557 µM; in [3], below 0.0139 µM; in [4], above 7.2 µM; in assay [5], above 100 µM; in [6] it was 1.97 µM. The GI50 in [7] was 0.535 µM; in assay [8] it was 0.0264 µM; in assay [9] it was above 100 µM; in [10] it was 0.141 µM. Further, the TGI in assay [1] was above 100 µM; in assay [2], above 100 µM; in assay [4] it was above 55.3 µM; in assay [5], above 100 µM; in assay [6], above 15.8 µM; in assay [7], above 100 µM. Besides, the TGI in assay [8] was above 13.8 µM; in assay [9] it was above 100 µM; in [10], above 100 µM.
As to `C/C=C/[P+](c1ccccc1)(c1ccccc1)c1ccccc1`, the TGI in [1] stood at 41.4 µM; in assay [2] it was 27.2 µM; in assay [3], 0.898 µM; in assay [4] it was 17.5 µM; in assay [5], 18.6 µM; in [6], 14.4 µM. Further, the TGI is 14.3 µM in assay [7], above 100 µM in assay [8], 41.6 µM in [9] and 19.2 µM in [10].
As to `CNC(=O)N1CN(c2ccccc2)C2(CCN(CCCC(=O)c3ccc(F)cc3)CC2)C1=O`, the TGI was 79.4 µM in assay [1]; 40.8 µM in [2]; 34 µM in [3]; 38.4 µM in assay [4]; above 100 µM in assay [5]; 90.3 µM in [6]. The TGI in assay [7] turned out to be 87.5 µM; in assay [8] it was 33.6 µM; in assay [9], 54.6 µM; in assay [10], 43.4 µM.
`CCOC(=O)c1sc2c(c1OC(=O)c1cccs1)c(=O)n(-c1ccccc1)c(=S)n2-c1ccccc1`: the TGI in [1] worked out at 48.7 µM; in assay [2], 33.4 µM; in assay [3], 31.3 µM; in assay [4], 35.4 µM; in [5] it was 94.1 µM; in assay [6] it was 41.8 µM. Also, the TGI worked out at 46.5 µM in assay [7], 43.4 µM in [8], 89.8 µM in assay [9] and 33.4 µM in assay [10].
`O=c1oc2ccccc2cc1/C=N/N1C(=S)N(c2ccccc2)C(=Nc2ccccc2)C1=Nc1ccccc1`: the TGI in assay [1], in assay [2], in assay [3], in [4], in assay [5] and in [6] was above 100 µM throughout. Besides, the TGI in assay [7], in assay [8], in assay [9] and in assay [10] was above 100 µM each time.
Take `COc1cc(OC)c(OC)cc1/C=N/N=C(\N)NO`: the TGI in assay [1], in assay [2], in [3], in assay [4], in [5] and in assay [6] was above 100 µM in each case. Moreover, the TGI in assay [7], in assay [8], in [9] and in assay [10] was above 100 µM each time.
Turning to `CCCN(C(=O)c1c(Cl)nnc(Cl)c1C(=O)c1cc(Cl)nnc1Cl)c1cc(Cl)nnc1Cl`, the TGI in assay [1] is 57.3 µM; in [2], 40.8 µM; in [3] it was 17.1 µM; in [4], 28.1 µM; in [5] it was 27.6 µM; in assay [6], 34.3 µM. Moreover, the TGI in [7] is 20.3 µM; in assay [8] it was 18.5 µM; in assay [9], 8.49 µM; in assay [10] it was 24.9 µM.
Regarding `N#Cc1c(N)oc(-c2cccc([N+](=O)[O-])c2)c1C#N`, the TGI was above 100 µM in assay [1]; above 100 µM in [2]; 59.8 µM in [3]; 39.5 µM in [4]; above 100 µM in [5]; above 100 µM in [6]. In addition, the TGI is 44 µM in [7], 30.7 µM in [8], 57.3 µM in assay [9] and above 100 µM in assay [10].
Consider `COC(=O)C1CC2(CCC1=O)Cc1ccccc1C2=O` (centres undefined), for which the TGI in assay [1], in [2], in [3], in assay [4], in assay [5] and in assay [6] was above 100 µM in each case. The TGI in [7], in [8], in assay [9] and in assay [10] was above 100 µM in each case.
As for `CCC(NC(C)c1ccccc1)C(O)c1ccc(OCc2ccccc2)c(OCc2ccccc2)c1` (centres undefined), the TGI in [1] stood at 36.3 µM; in assay [2], 16.3 µM; in [3] it was 10.7 µM; in [4], 36 µM; in assay [5] it was 32.1 µM; in [6], 21.2 µM. The TGI in assay [7] came out at 31.6 µM; in assay [8] it was 29.9 µM; in [9], 23 µM; in assay [10], 33.7 µM.
With `O=[N+]([O-])/C=C1\COCc2cc3c(cc21)OCO3`, the TGI in assay [1] stood at 57.6 µM; in assay [2], 26.9 µM; in assay [3] it was 68.5 µM; in [4], 34.2 µM; in assay [5], 37.4 µM; in assay [6], 29.8 µM. Besides, the TGI in assay [7] is 27.1 µM; in assay [8] it was 36.2 µM; in assay [9] it was 38.9 µM; in assay [10] it was 51.8 µM.
For `COC(=O)c1c2n(c3ccccc13)C[C@H]1OC(C)(C)O[C@@H]21`, the TGI in assay [1], in [2], in [3], in [4], in [5] and in assay [6] was above 100 µM each time. Besides, the TGI in assay [7], in assay [8], in assay [9] and in assay [10] was above 100 µM throughout.
